In publication PMC4368788, “Depsides: Lichen Metabolites Active against Hepatitis C Virus” (PLoS ONE, 2015):
Entries after “also recorded” stand apart in the source; their conditions may differ. Like-named read-outs stand apart in the source and are kept apart here.

Experiments:
[1] = system: HCVcc; assay: Anti-HCV activity: HCVcc expressing Renilla luciferase in Huh-7.5.1 cells, luciferase readout; assay type: cell-based, hepatitis C virus; conditions: for IC50: Hepatitis C virus, Huh-7.5.1 cells infected with HCVcc, 1 h preincubation then 48 h with virus, mean ± SEM, three experiments; for SI (selectivity index): ratio of CC50 to IC50; for Anti-HCV activity: HCVcc in Huh-7.5.1 cells, up to 100 μM
Procedure: (§1) Huh-7.5.1 cells were maintained in Dulbecco's modified Eagle's medium (DMEM) containing 4.5 g/l D-glucose, 4 mM L-glutamine (Life Technologies), supplemented with 100 units/mL penicillin (Life Technologies), 100 μg/mL streptomycin (Life Technologies), non-essential amino acids (Sigma-Aldrich), 1 mM Hepes (Life Technologies) and 10% heat-inactivated fetal calf serum (FCS, Hyclone). […] In cell viability and HCV in vitro propagation experiments, the final concentration of DMSO was systematically adjusted to 0.1%. We checked that this amount of DMSO had no effect on the biological cycle of HCVcc in vitro (data not shown).
(§2) HCVcc was generated from the FL-J6/JFH-5’C19Rluc2AUbi construct, a monocistronic, full-length HCV genome that expresses Renilla luciferase. It was produced and titrated as described elsewhere, except for the readout for luciferase activity measurement. Cell viability was evaluated with the Cell Proliferation Reagent WST-1 (Roche), according to the manufacturer’s instructions. Luciferase assays were performed according to the manufacturer’s instructions (Promega) and measurements were performed on a Centro XS3 LB960 luminometer (Berthold Technologies).
(§3) Cell viability and viral replication data from at least three independent experiments were analyzed. The IC50 values of the compounds were determined from dose-response curves generated with seven to 12 concentrations of each compound. Curves were fitted to the data points by nonlinear regression analysis and IC50 values were interpolated from the resulting curves with GraphPad Prism 5.00 software.
We evaluated the anti-HCV activity of the 10 atranorin-related compounds, using a virus grown in cell culture (HCVcc) with a modification of its genome resulting in expression of the Renilla luciferase reporter gene. […] These two compounds are known to interfere with the entry and replication steps of viral cycle, respectively. The maximum dose of each tested compound was 100 μM, because most of these molecules became insoluble in aqueous solution at higher concentrations. The first experimental procedure used involved the preincubation of human hepatic Huh-7.5.1 cells for 1 h with various doses of the molecules. The cells were then cultured in the presence of both the molecules tested and the virus, for an additional 48 h. At the end of the incubation period, we assessed cell viability and viral replication. This protocol made it possible to test the effects of molecules on both virus entry and replication. […] Remarkably, compound 6 tended to give a slightly, but reproducibly higher viability signal when used at high doses, with a peak at about 50 μM. […] At concentrations greater than 50 μM, cytotoxic effects emerged, as shown by the decrease of the viability signal.

[2] = in vitro; assay type: cell-based, human; conditions: human, mean ± SEM; for CC50 at 48 h: half-maximal cytotoxicity concentration, Huh-7.5.1 cells, maximum dose tested 100 μM; for viability at 48 h, 50 µM / viability at 48 h, 100 µM: percentage of vehicle (0.1% DMSO) control; for viability at 48 h, 10 µM: 10 μM (controls)
Procedure: as §1, with “0.1%.” for “0.1%. We checked that this amount of DMSO had no effect on the biological cycle of HCVcc in vitro (data not shown).”
as §2, §3
(§4) We evaluated the anti-HCV activity of the 10 atranorin-related compounds, using a virus grown in cell culture (HCVcc) with a modification of its genome resulting in expression of the Renilla luciferase reporter gene. […] These two compounds are known to interfere with the entry and replication steps of viral cycle, respectively. […] The first experimental procedure used involved the preincubation of human hepatic Huh-7.5.1 cells for 1 h with various doses of the molecules. The cells were then cultured in the presence of both the molecules tested and the virus, for an additional 48 h. At the end of the incubation period, we assessed cell viability and viral replication. This protocol made it possible to test the effects of molecules on both virus entry and replication.

[3] = system: Huh-7.5.1 cells; assay: in vitro; assay type: cell-based, human; conditions: for Effect on cell viability signal: high doses, up to 100 μM; for Effect on cell viability signal / CC50: 48 h; for CC50: half-maximal cytotoxicity concentration, Huh-7.5.1 cells, mean ± SEM, maximum dose tested 100 μM
Procedure: as §1, with “0.1%.” for “0.1%. We checked that this amount of DMSO had no effect on the biological cycle of HCVcc in vitro (data not shown).”
as §2, §3, §4

[4] = system: Huh-7.5.1 cells; assay: Cell viability in the inoculation/replication (I, R, I/R) procedure; assay type: cell-based, human
Procedure: (§5) An experimental procedure was designed to determine the inhibitor class (entry or replication) to which compounds 1, 5 and 6 belonged. HCVcc were added to the cell culture during a limited time window (around 17 h). The cells were then washed to eliminate viruses from the inoculum and viral replication was allowed to take place for an additional 30 h. The selected compounds were present in the culture medium during inoculation (I), replication (R), or both these phases (inoculation and replication, I/R). […] In terms of antiviral activity, we expected to obtain two inhibition profiles for the luminescence signal, depending on the step of the viral lifecycle targeted by the drug (Fig. 4B). […] The inhibitory effect on the establishment of replication (R conditions) observed at high doses was probably due principally to the inhibition of new infection cycles initiated by virions produced by cells infected with the inoculum. A different profile was obtained for telaprevir. […] Its presence in the medium from inoculation onwards prevented the priming of the infection process at the viral polyprotein maturation step, which normally takes place after the translation of the HCV genome issued from the infecting virus. This maturation step is also repeated during the replication phase, for amplification of the viral genome and virion assembly. It is therefore not surprising that inhibition was strongest when telaprevir was present throughout the viral lifecycle (I/R), as there was probably an additive effect. […] The chemical group in this position seems to influence not only the potency of the molecule, but also its mechanism of action. Further studies are required to identify the processes involved because, for example, we cannot rule out a role in the inhibition of viral entry for compounds 5 and 6, even though they appeared to act as replication inhibitors in this experiment. It could be hypothesized that the replacement of a methyl or hydroxymethyl by an aldehyde group in position C-3 would lead to a loss of replication inhibition, but maintenance of the ability to inhibit viral entry.
(§6) Fig 4 Effects of compounds 1, 5 and 6 on cell viability and HCV propagation in vitro. One day after seeding at 50,000 cells/cm^2, Huh-7.5.1 cells were infected with HCVcc at a MOI ~ 0.03 for 17 h (inoculation phase: I). The inoculum was removed and cell cultures were washed before the addition of new medium and incubation for an additional 30 h (replication phase: R). […] (A) Cell viability and (B) viral replication were assessed at the end of the incubation period. Results are expressed as percentages (mean ± SEM; n = 3) of the mean values obtained for the respective control cultures, in which cells were incubated with vehicle (0.1% DMSO) alone.

[5] = system: HCVcc; assay: Targeted stage of HCV life cycle: compounds present during inoculation (I), replication (R) or both (I/R), luciferase readout; assay type: cell-based, hepatitis C virus; conditions: for Inhibition profile / step of HCV lifecycle targeted: compounds present during I (17 h), R (30 h) or I/R
Procedure: as §5
Fig 4 Effects of compounds 1, 5 and 6 on cell viability and HCV propagation in vitro. One day after seeding at 50,000 cells/cm^2, Huh-7.5.1 cells were infected with HCVcc at a MOI ~ 0.03 for 17 h (inoculation phase: I). The inoculum was removed and cell cultures were washed before the addition of new medium and incubation for an additional 30 h (replication phase: R). Compounds were present at various concentrations either during both phases (I/R: black circles and solid lines) or during only one phase (I: black squares and dotted lines; R: black triangles and dashed lines). (A) Cell viability and (B) viral replication were assessed at the end of the incubation period. Results are expressed as percentages (mean ± SEM; n = 3) of the mean values obtained for the respective control cultures, in which cells were incubated with vehicle (0.1% DMSO) alone.

[6] = Stability of the molecule in solution; assay type: physicochemical; conditions: even if dissolved immediately before use
[7] = Cell viability in the inoculation/replication (I, R, I/R) procedure; assay type: cell-based, human; conditions: human; I, R, I/R incubation conditions
Procedure: as §5, §6

[8] = percentage of vehicle control, n = 3

| SMILES | IC50 [1] [µM] | CC50 at 48 h [2] [µM] | viability at 48 h, 50 µM ([2]; n = 3) [%] | viability at 48 h, 100 µM ([2]; n = 3) [%] | Effect on cell viability signal [3] | Inhibition profile / step of HCV lifecycle targeted [5] | also measured |
| --- | --- | --- | --- | --- | --- | --- | --- |
| COC(=O)c1c(C)cc(OC(=O)c2c(C)cc(O)c(C=O)c2O)c(C)c1O [Compound 1, atranorin] | 22.3 ± 8 | > 100 | 95.9 ± 4.5 | 91.8 ± 5.9 | minimal loss of signal | inhibited only viral entry; also recorded: effects similar to those of erlotinib | Effect on cell viability ([4]; regardless of incubation conditions (I, R, I/R)): no effect on cell viability; Inhibitory effect when present only during inoculation ([5]; I condition only, up to 100 μM): no inhibitory effect |
| COC(=O)c1c(C)cc(OC(=O)c2c(C)cc(O)c(/C=C/C(C)=O)c2O)c(C)c1O [Compound 2, (E)-[3-hydroxy-4-(methoxycarbonyl)-2,5-dimethylphenyl]-2,4-dihydroxy-6-methyl-3-(3-oxobut-1-en-yl) benzoate] | 64.5 ± 26.5 | > 100 | 110 ± 5.9 | 107 ± 5.7 |  |  | melting point: 234 to 236 °C (dec.); Stability in solution [6]: instability of the molecule in solution |
| COC(=O)c1c(C)cc(OC(=O)c2c(C)cc(O)cc2O)c(C)c1O [Compound 3, methyl-3’-methyllecanorate] | 25.4 ± 1.7 | 82 | 52.7 ± 0.6 | 63.1 ± 2.9 |  |  | SI (selectivity index) [1]: 3.2; CC50 [3]: 81.9 ± 13.6 µM |
| COC(=O)c1c(C)cc(OC(=O)c2c(C)cc(O)c(C(=O)O)c2O)c(C)c1O [Compound 4, cladonioidesin] | > 100 | > 100 | 104 ± 2.5 | 90.4 ± 3.4 | minimal loss of signal |  | Anti-HCV activity [1]: inactive |
| COC(=O)c1c(C)cc(OC(=O)c2c(C)cc(O)c(CO)c2O)c(C)c1O [Compound 5, Methyl-8-hydroxy-4-O-demethylbarbatate] | 11.8 ± 1.1 | 106 | 88.4 ± 7.3 | 55.8 ± 5.9 |  | interfered with viral replication; also recorded: profiles typical of replication inhibitors | SI (selectivity index) [1]: 8.9; CC50 [3]: 106 ± 7.3 µM; CC50 [7]: ~100 µM |
| COC(=O)c1c(C)cc(OC(=O)c2c(C)cc(O)c(C)c2O)c(C)c1O [Compound 6, Methyl-4-O-demethylbarbatate] | 13.3 ± 1.6 | > 100 | 145 ± 3.2 | 81.6 ± 20.6 |  | interfered with viral replication; also recorded: profiles typical of replication inhibitors | Concentration above which cytotoxic effects emerged ([3]; decrease of the viability signal): greater than 50 μM; Concentration of the peak of the higher viability signal ([3]; slightly higher viability signal at high doses, modest stimulation of cell proliferation): about 50 μM; Cytotoxicity at 100 μM ([4]; 100 μM, except in R conditions): induced some cytotoxicity |
| COC(=O)c1c(C)cc(O)c(C)c1O [Compound 7, methyl-2,4-dihydroxy-3,6-dimethylbenzoate] | 50.6 ± 5 | > 100 | 101 ± 5.6 | 97.3 ± 6.2 |  |  |  |
| COC(=O)c1c(C)cc(O)cc1O [Compound 8, methyl orsellinate] | ≥ 100 | > 100 | 106 ± 2.9 | 93.4 ± 4.2 | minimal loss of signal |  | Anti-HCV activity [1]: inactive |
| Cc1cc(O)c(C=O)c(O)c1 [Compound 9, atranol] | 40.3 ± 0.6 | > 100 | 91.1 ± 3.5 | 78.7 ± 2.3 | minimal loss of signal |  |  |
| COC(=O)c1c(C)cc(O)c(C=O)c1O [Compound 10, methyl haematommate] | 55.5 ± 7.9 | > 100 | 88.1 ± 5.5 | 72.2 ± 2 | minimal loss of signal |  |  |
| C#Cc1cccc(Nc2ncnc3cc(OCCOC)c(OCCOC)cc23)c1 [Erlotinib, erlotinib, reference compound] | 0.64 ± 0.18 |  |  |  |  | most efficient if present at least during the initial interaction between cells and viruses | viability at 48 h, 10 µM [2, 8]: 86.5 ± 5.1%; Effect on cell viability [4]: small anti-proliferative effect |
| CCC[C@H](NC(=O)[C@@H]1[C@H]2CCC[C@H]2CN1C(=O)[C@@H](NC(=O)[C@@H](NC(=O)c1cnccn1)C1CCCCC1)C(C)(C)C)C(=O)C(=O)NC1CC1 [Telaprevir, telaprevir, reference compound] | 0.18 ± 0.02 |  |  |  |  | inhibitory action regardless of the experimental conditions (I or R) | viability at 48 h, 5 µM ([2]; 5 μM (controls), percentage of vehicle control, n = 3): 101.9 ± 0.9%; viability at 48 h, 10 µM [2, 8]: 94.1 ± 4% |
